Laboratory results: patent US9763894B2, “Inflammation therapy” (Virginia Commonwealth University, priority 2006, dated 2017)
“Also recorded” adds a separate entry of the source.

Assays:
human CB2 receptor [1] = molecular target: T1, human CB2 receptor (Homo sapiens, UniProt P34972); conditions: reported previously (Wiley et al. 2002); read-out: affinity for CB2 cannabinoid receptor; cited from earlier work
T1 construct: expressed in transfected cells

C57BL/6 mice [2] = test: Neurological evaluation (five-point deficit score) after MCAO/R; format: in vivo, mouse; conditions: 24 hours post-ischemia
Protocol: The animals were anesthetized with an intraperitoneal injection of Ketamine ([…])-Xylazine (20 mg/kg) mixture (1:1) at a dose of 1 ml/kg. Body temperature was maintained at […]° C. by a heating lamp and heating pad. Middle cerebral artery occlusion was achieved by the intraluminal filament methods. (Hata et al. 1998) Briefly, a midline neck incision was made under the operation microscope; the right common carotid artery (CCA), external carotid artery (ECA) and internal carotid artery (ICA) were isolated. The ECA was ligated with 6-0 silk suture distal from the ICA-ECA branch and then cut distal from ligated point. Another 6-0 silk suture was tied loosely around ECA at close to the origin at the CCA. A blunted 5-0 monofilament nylon suture coated with poly-L-lysine (0.1% in deionized water, Sigma) (Belayev et al. 1999) was introduced from a small incision on ECA and then advanced into the circle of Willis, and finally to the origin of the middle cerebral artery. […]
The severity of neurological deficits was evaluated 24 hours after ischemic insult using a five-point deficit score (0=normal motor function; 1=flexion of torso and of contralateral forelimb upon lifting of the animal by tail; 2=circling to the contralateral side but normal posture at rest; 3=leaning to contralateral side at rest; and 4=no spontaneous motor activity) (Hata et al. 1998).

human CB2 receptor [3] = molecular target: T1, human CB2 receptor; test: 35S-GTPγS binding, CHO cells expressing human CB2 receptor; format: biochemical
Protocol: (§1) (Martin et al. 2002; Wiley et al. 2002) CB1 and CB2 receptor affinities were determined using ^3H-CP 55,940 binding to rat brain membranes and to Chinese Hamster Ovary (CHO) cells stably expressing the human CB2 receptor, respectively. In vitro functional activity was determined in these same preparations using ^35S-GTPγS binding. For in vivo behavioural effects, mice were injected intravenously with the drugs prepared in ethanol:emulphor:saline (1:1:18). The mice were evaluated for locomotor activity, analgesia, body temperature, and catalepsy. These behaviours are collectively referred to as the tetrad test and are indicative of CB1 receptor activity.

C57BL/6 mice [4] = test: Leukocyte/endothelial interactions by intravital microscopy through a cranial window in MCAO/R; format: in vivo, mouse; conditions: treatment 1 hour before MCAO
Protocol: On the day of cranial window implantation, the animals were anesthetized with an intraperitoneal injection of Ketamine (100 mg/ml)-Xylazine (20 mg/kg) mixture (1:1) at a dose of 1 ml/kg. The head was shaved and positioned in a stereotactic head holder. A 1 cm^2 area of skin on the dorsal surface of the skull over the right cortical hemisphere was excised and the periosteum was removed. A 4 mm diameter circular craniotomy was performed using a high speed drill (Champ-Air Dental Drill Benco Dental) over the right parietal cortex extending from attachment of the temporal muscle to midpoint of sagittal suture in the coronal direction and aligned to middle of the sagittal suture, so that the window contained some terminal branches of the middle cerebral artery. Normal saline was dripped over the cranium to avoid thermal injury of the cortex. […]
Leukocyte/endothelial interactions were evaluated before MCAO, 1 hour after MCAO and 24 hours after MCAO. […] Three venules (with diameter 30-50 μm) and three arterioles (with diameter 20-40 μm) in each animal were assessed. […] They were counted when they passed an arbitrary line perpendicular to the longitudinal axis of the vessel over a period of 30 seconds. […] Adhering leukocytes were scored as the number of cells per mm^2 of the vascular surface area, calculated from the diameter and standardized length (100 μm) of the vessel segment under investigation.

mice [5] = test: Tetrad test (locomotor activity, analgesia, body temperature, catalepsy), indicative of CB1 receptor activity; format: in vivo, mouse; conditions: i.v., doses up to 30 mg/kg
Protocol: The cerebral ischemia/reperfusion studies were carried out on 8 week old male C57BL/6 mice (weighing 23 to 27 g; Taconic N.Y.) and conducted in accordance with the guidelines approved by Institute for Animal Care and Use Committee at Temple University. The behavioural evaluation of the cannabinoid analogs was carried out in 8-week old ICR male mice weighing 23-27 g in accordance with the guidelines approved by the Institute for Animal Care and Use Committee at Virginia Commonwealth University.
as §1

C57BL/6 mice [6] = test: Infarct volume after middle cerebral artery occlusion and reperfusion (MCAO/R); format: in vivo, mouse; conditions: 24 hours after MCAO
Protocol: (§2) The animals were anesthetized with an intraperitoneal injection of Ketamine ([…])-Xylazine (20 mg/kg) mixture (1:1) at a dose of 1 ml/kg. Body temperature was maintained at […]° C. by a heating lamp and heating pad. Middle cerebral artery occlusion was achieved by the intraluminal filament methods. (Hata et al. 1998) Briefly, a midline neck incision was made under the operation microscope; the right common carotid artery (CCA), external carotid artery (ECA) and internal carotid artery (ICA) were isolated. The ECA was ligated with 6-0 silk suture distal from the ICA-ECA branch and then cut distal from ligated point. Another 6-0 silk suture was tied loosely around ECA at close to the origin at the CCA. A blunted 5-0 monofilament nylon suture coated with poly-L-lysine (0.1% in deionized water, Sigma) (Belayev et al. 1999) was introduced from a small incision on ECA and then advanced into the circle of Willis, and finally to the origin of the middle cerebral artery. The silk suture around the ECA stump was tied tightly to prevent bleeding and secure the nylon suture. The nylon suture was removed after 60 minutes occlusion and ECA was permanently tied. Reperfusion was confirmed when pulsations were again observed in ICA.
The CB2 agonists (O-1966 and O-3853: described in Wiley et al and WO 03/091189, incorporated herein by reference, and the copending application of Razdan et al)) were dissolved in a pure ethanol:emulphor:saline mixed solution at 1:1:18. The CB2 agonists (1 mg/kg) or equal volume of vehicle were administered as an intravenous injection into the jugular vein 1 hour before MCAO or 10 minutes after reperfusion. The investigator was blinded with regard to whether the animals were members of vehicle or treatment groups during all experimental procedures and measurements.
Animals were euthanized with an overdose of pentobarbital (200 mg/kg i.p) 24 hours after MCAO and then the brains were removed. The brains were chilled in ice for 10 minutes to slightly harden the tissue. Five 2 mm coronal sections were cut using a mouse brain matrix (Zivic lab).The brain sections were placed in 2% triphenyltetrazolium chloride (TTC) (Sigma, Inc) dissolved in saline and stained for 20 minutes at 37° C. in the dark. The brain sections were then fixed in 4% paraformaldehyde at 4° C. for 24 hours and the anterior and caudal face of each section was scanned by a flatbed color scanner (Microtek Inc). The resulting images were captured as JPEG files (FIG. 2E) and analyzed with NIH image software. The infarct volumes were expressed as mm^3 as well as the percentage of the ipsilateral hemisphere.

C57BL/6 mice [7] = test: Regional cerebral blood flow (rCBF) during MCAO; format: in vivo, mouse; conditions: 1 mg/kg, 1 hour prior to occlusion, versus vehicle
Protocol: as §2
A laserPro Blood Perfusion Monitor (TSI Inc) was used to monitor regional cerebral blood flow (rCBF) prior to ischemia, during MCAO and reperfusion. […]

C57BL/6 mice [8] = test: Thoracic spinal cord injury (SCI) model; format: in vivo, mouse
Protocol: A thoracic spinal cord injury model was induced in female 6-8 week old C57BL/6 mice. Spinal cord CB2 mRNA expression was evaluated in sham animals and SCI animals 24 hours after injury by real time RT-PCR. Animals were randomized into two groups: the experimental group received intraperitoneal injections of a selective CB2 agonist (O-1966; 1 mg/kg) one hour before injury, 24 and 48 hours after injury; the control group received equal volumes of vehicle. Both groups were tested for motor function by using the Basso Mouse Scale for Locomotion (BMS) and the Basso, Beattie, Bresnahan Locomotor Rating Scale (BBB) on post-procedure days 1, 7, and 14. Urine mass was recorded twice daily to assess bladder recovery. The inflammatory cytokine TNF-α was measured by real time RT-PCR in both groups 24 hours after SCI.

CB1 receptor = molecular target: T2, CB1 receptor (Rattus norvegicus, UniProt P20272); conditions: reported previously (Wiley et al. 2002); read-out: affinity for CB1 cannabinoid receptor; cited from earlier work
T2 construct: from tissue; host or cells: rat brain membranes

mice [9] = conditions: reference CB1/CB2 agonist, all four measures; cited from earlier work
[10] = 1 mg/kg i.v. 10 minutes after reperfusion (post-reperfusion treatment)
[11] = 1 mg/kg i.v. 1 hour before MCAO (pre-ischemic treatment)

T1 sequence (P34972 whole entry): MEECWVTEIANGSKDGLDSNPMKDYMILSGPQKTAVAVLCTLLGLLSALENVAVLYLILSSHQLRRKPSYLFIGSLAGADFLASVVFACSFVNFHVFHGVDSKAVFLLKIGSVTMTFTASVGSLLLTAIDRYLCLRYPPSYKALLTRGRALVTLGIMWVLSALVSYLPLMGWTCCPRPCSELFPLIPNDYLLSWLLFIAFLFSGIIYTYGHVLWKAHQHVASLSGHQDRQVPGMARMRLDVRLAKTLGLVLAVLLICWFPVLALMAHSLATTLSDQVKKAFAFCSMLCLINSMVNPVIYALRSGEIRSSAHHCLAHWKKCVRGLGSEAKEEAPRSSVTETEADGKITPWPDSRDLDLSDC
T2 sequence (P20272 whole entry): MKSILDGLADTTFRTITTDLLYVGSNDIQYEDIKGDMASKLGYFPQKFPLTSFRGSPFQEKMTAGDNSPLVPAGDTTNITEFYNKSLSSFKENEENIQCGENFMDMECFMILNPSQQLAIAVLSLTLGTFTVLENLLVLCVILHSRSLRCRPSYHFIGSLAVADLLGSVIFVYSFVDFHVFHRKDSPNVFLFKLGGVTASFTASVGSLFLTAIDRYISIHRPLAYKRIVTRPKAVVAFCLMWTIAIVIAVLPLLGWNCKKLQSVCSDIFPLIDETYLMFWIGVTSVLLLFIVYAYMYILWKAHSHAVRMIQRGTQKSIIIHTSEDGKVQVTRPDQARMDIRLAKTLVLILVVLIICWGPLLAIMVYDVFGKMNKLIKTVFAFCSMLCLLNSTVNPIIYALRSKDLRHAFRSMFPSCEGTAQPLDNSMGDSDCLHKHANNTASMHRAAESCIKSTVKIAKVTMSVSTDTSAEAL

SMILES | Ki (human CB2 receptor [1]) | motor function score (C57BL/6 mice [2]; pretreatment 1 hour before MCAO, vehicle 3.25±0.20) | motor function (C57BL/6 mice [2]; treatment during reperfusion) | EC50 (human CB2 receptor [3]; CHO cells with human CB2, read-out: EC50 for stimulating 35S-GTPγS binding (CB2)) | Emax (human CB2 receptor [3]; percent of maximal stimulation produced by the full agonist CP 55,940) | leukocyte/endothelial interactions (C57BL/6 mice [4]) | effects in the tetrad test (CB1 receptor-mediated behavioural effects) (mice [5]) | infarct volume (C57BL/6 mice [6]; [10]) | infarct volume as percentage of the ipsilateral hemisphere (C57BL/6 mice [6]; [10]) | infarct volume (C57BL/6 mice [6]; [11]) | infarct volume as percentage of the ipsilateral hemisphere (C57BL/6 mice [6]; [11]) | effect on rCBF during the 1 hour occlusion period (C57BL/6 mice [7]) | motor function recovery (BMS and BBB) (C57BL/6 mice [8]; 1 mg/kg i.p. one hour before, 24 and 48 hours after injury, days 1, 7 and 14) | bladder function recovery rate (C57BL/6 mice [8]; 1 mg/kg i.p., 14th day after SCI, control group 14%) | TNF-α expression in the injured spinal cord (C57BL/6 mice [8]; real time RT-PCR, 24 hours after SCI, compared to control group) | Ki (CB1 receptor) | ED50's in the four tetrad measures (mice [9])
CCCCCCC(C)(C)c1cc(OC)c(C2(O)CCCC(C)C2)c(OC)c1 (centres unmarked) [O-1966] | 23 ± 2.1 nM | 1.69±0.30 | significantly improved the motor function | 70 ± 14 nM | 74 ± 5% | attenuated leukocyte/endothelial interactions | produced some modest behavioural effects only at doses that far exceeded those used in the MCAO/R studies; also recorded: failed to produce effects in the tetrad test | 71.3±5.5 mm^3 | 27±2% | 65.6±4.0 mm^3 | 25±2.5% | no effect on rCBF | better motor function recovery than the control group | 45% | decreased TNF-α expression | 5060 nM | –
CCCCCc1cc(O)c2c(c1)OC(C)(C)[C@@H]1CCC(C)=C[C@@H]21 [Δ^9-tetrahydrocannabinol] | – | – | – | – | – | – | – | – | – | – | – | – | – | – | – | – | 1 to 2 mg/kg
